From ChEMBL document CHEMBL4387740, “Discovery of ABT-957: 1-Benzyl-5-oxopyrrolidine-2-carboxamides as selective calpain inhibitors with enhanced metabolic stability” (Bioorg Med Chem Lett, 2019)

Columns and labels:
[1] = species: Homo sapiens; assay: Selectivity ratio, ratio of Ki for CatK (unknown origin) to Ki for Cal1 (unknown origin)
[2] = Intrinsic clearance in human liver microsomes; format: ADME, Microsome; details: read-out: CLH
[3] = Intrinsic clearance in rat liver microsomes; format: ADME, Microsome; details: read-out: CLH
[4] = Intrinsic clearance in human liver cytosol; format: ADME, subcellular; details: read-out: CLH
[5] = Selectivity ratio, ratio of Ki for CatS (unknown origin) to Ki for Cal1 (unknown origin); details: Homo sapiens
[6] = species: Homo sapiens; assay: Selectivity ratio, ratio of Ki for CatB (unknown origin) to Ki for Cal1 (unknown origin)
[7] = species: Homo sapiens; assay: Selectivity ratio, ratio of Ki for CatL (unknown origin) to Ki for Cal1 (unknown origin)
[8] = molecular target: T1, Calpain-1 catalytic subunit (Homo sapiens, UniProt P07384); assay: Inhibition of Cal1 (unknown origin)
T1 sequence (P07384 whole entry): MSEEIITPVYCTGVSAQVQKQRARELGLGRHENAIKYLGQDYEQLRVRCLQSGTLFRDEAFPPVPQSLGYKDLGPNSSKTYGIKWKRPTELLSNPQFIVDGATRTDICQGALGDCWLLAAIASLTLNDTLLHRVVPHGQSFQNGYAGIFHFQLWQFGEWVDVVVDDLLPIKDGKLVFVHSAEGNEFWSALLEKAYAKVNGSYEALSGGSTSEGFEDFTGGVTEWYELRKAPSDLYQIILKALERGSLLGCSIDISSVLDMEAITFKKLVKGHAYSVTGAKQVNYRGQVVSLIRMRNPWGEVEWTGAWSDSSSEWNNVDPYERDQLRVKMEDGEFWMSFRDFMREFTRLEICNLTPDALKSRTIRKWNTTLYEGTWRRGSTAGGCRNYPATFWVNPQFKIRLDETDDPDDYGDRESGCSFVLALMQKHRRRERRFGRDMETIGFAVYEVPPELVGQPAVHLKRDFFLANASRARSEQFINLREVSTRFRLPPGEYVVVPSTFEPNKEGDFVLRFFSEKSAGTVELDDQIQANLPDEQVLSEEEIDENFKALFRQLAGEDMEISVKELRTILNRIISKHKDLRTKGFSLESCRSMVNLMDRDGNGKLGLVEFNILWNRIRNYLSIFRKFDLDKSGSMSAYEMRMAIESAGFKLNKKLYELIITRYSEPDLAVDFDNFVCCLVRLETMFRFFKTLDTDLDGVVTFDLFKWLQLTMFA

[9] = Intrinsic clearance in rat liver microsomes; details: read-out: CLH

| Structure (SMILES) | Selectivity ratio [1] | microsomal CLint [2] [µL/min/mg] | microsomal CLint [3] [µL/min/mg] | microsomal CLint [4] [µL/min/mg] | Selectivity ratio [5] | Selectivity ratio [6] | Selectivity ratio [7] | Ki [8] [nM] | microsomal CLint [9] [µL/min/mg] |
| --- | --- | --- | --- | --- | --- | --- | --- | --- | --- |
| O=C(Nc1ccccc1)C(=O)C(Cc1ccccc1)NC(=O)[C@H]1CCC(=O)N1Cc1ccccc1 (stereo partly specified) | 88 | > 70 | > 100 | 5 | > 400 | 296 | 37 | 70 | – |
| O=C(NC1CC1)C(=O)C(Cc1ccccc1)NC(=O)[C@H]1CCC(=O)N1Cc1ccccc1OC(F)(F)F (stereo partly specified) | > 200 | < 1 | – | > 70 | > 200 | 22 | 17 | 50 | > 100 |
